20 molecules from patent US5643784A, “Indan derivatives” (H, Lundbeck A/S, priority 1990, dated 1997) can be followed below.

For one assay, the target named is T1, 5-HT2 receptors (Rattus norvegicus, UniProt P14842).
T1 construct: cortical tissue is dissected and weighed; from tissue; host or cells: cortex of male Wistar rats, crude membranes
Put plainly: Inhibition of 3H-ketanserin binding to 5-HT2 receptors in rat cortex in vitro. Conditions: 3H-Ketanserin 0.5 nM, rat cortex, 37° C., 30 min; read-out: Receptor Binding; IC50 5-HT2 3H-Ket. How it is done: Method in Hyttel, Pharmacology & Toxicology, 61, 126-129, 1987.
Male Wistar (Mol:Wist) rats (125-250 g) are sacrificed and cortical tissue is dissected and weighed. The tissue is homogenized (Ultra Turrax, 10 sec.) in 10 ml of ice-cold 50 mM tris buffer pH 7.7 (at 25° C.). The centrifuge glassware used in this step has been rinsed by sonication for 10 min. in ethanol. The homogenate is centrifuged twice at 20,000 g for 10 min. at 4° C. with rehomogenization of the pellet in 10 ml ice-cold buffer. The final pellet is homogenized in 500 vol (w/v) ice-cold buffer.
Incubation tubes kept on ice in triplicate receive 100 μl of drug solution in water (or water for total binding) and 2000 μl of tissue suspension (final tissue content corresponds to 4 mg original tissue). […] After incubation for 30 min. the samples are filtered under vacuum (0-50 mBar) through Whatman GF/F filters (25 mm). The tubes are rinsed with 5 ml ice-cold buffer which are then poured on the filters. Thereafter, the filters are washed with 2×5 ml of buffer. The filters are placed in counting vials and 4 ml of appropriate scintillation fluid (e.g. Picofluor™15) are added. After shaking for 1 h and storage 2 hrs in the dark the content of radioactivity is determined by liquid scintillation counting. Specific binding is obtained by subtracting the nonspecific binding in the presence of 1 μM mianserin.
(§1) For determination of the inhibition of binding five concentrations of drugs covering 3 decades are used.
The IC50 value is determined as the concentration at which the binding is 50% of the total binding in control samples minus the nonspecific binding in the presence of 1 μM mianserin.

A further assay deals with α1 adrenoceptors. As to the kind of experiment: Inhibition of 3H-prazosin binding to α1 adrenoceptors in rat brain in vitro. The settings on record: 3H-Prazosin 0.25 nM, rat brain, 25° C., 20 min; read-out: Receptor Binding; IC50 α1 3H-Praz. How it is done:
INHIBITION OF ^3 H-PRAZOSIN BINDING TO α1 ADRENOCEPTORS IN RAT BRAIN IN VITRO
Method and results in Hyttel & Larsen, J. Neurochem, 44, 1615-1622, 1985; Skarsfeldt & Hyttel, Eur. J. Pharmacol. 125, 323-340, 1986.
Male Wistar (Mol:Wist) rats (125-200 g) are sacrificed and brain tissue is dissected and weighed. The tissue is homogenized (Ultra Turrax, 10 sec.) in 10 ml of ice-cold […] Tris buffer pH 7,7 (at 25° C.). The homogenate is centrifuged twice at 20,000 g for 10 min. at 4° C. with rehomogenization of the pellet in 10 ml ice-cold buffer. The final pellet is homogenized in 400 vol (w/v) ice-cold buffer.
Incubation tubes kept on ice in triplicate receive 100 μl of drug solution in water (or water for total binding) and 4000μl of tissue suspension (final tissue content corresponds to 10 mg original tissue). The binding experiment is initiated by addition of 100 μl of ^3 H-Prazosin (final concentration 0.25 nM) and by placing the tubes in a 25° C. water bath. After incubation for 20 min. the samples are filtered under vacuum (0-50 mBar) through Whatman GF/F filters (25 mm). The tubes are rinsed with 5 ml ice-cold buffer which then are poured on the filters. Thereafter, the filters are washed with 5 ml of buffer. The filters are placed in counting vials and 4 ml of appropriate scintillation fluid (e.g. Picofluor™15) are added. After shaking for 1 h and storage 2 hrs in the dark the content of radioactivity is determined by liquid scintillation counting. Specific binding is obtained by subtracting the nonspecific binding in the presence of 1 μM of Prazosin.
as §1
The measured cpm are plotted against drug concentration on semilogarithmic paper and the best fitting S-shaped curve is drawn. The IC50 value is determined as the concentration at which the binding is 50% of the total binding in control samples minus the nonspecific binding in the presence of 1 μM of Prazosin.
^3 H-Prazosin=[furoyl-5-^3 H]-Prazosin from New England Nuclear, specific activity approximately 20 Ci/mmol.

T1 sequence (P14842 whole entry): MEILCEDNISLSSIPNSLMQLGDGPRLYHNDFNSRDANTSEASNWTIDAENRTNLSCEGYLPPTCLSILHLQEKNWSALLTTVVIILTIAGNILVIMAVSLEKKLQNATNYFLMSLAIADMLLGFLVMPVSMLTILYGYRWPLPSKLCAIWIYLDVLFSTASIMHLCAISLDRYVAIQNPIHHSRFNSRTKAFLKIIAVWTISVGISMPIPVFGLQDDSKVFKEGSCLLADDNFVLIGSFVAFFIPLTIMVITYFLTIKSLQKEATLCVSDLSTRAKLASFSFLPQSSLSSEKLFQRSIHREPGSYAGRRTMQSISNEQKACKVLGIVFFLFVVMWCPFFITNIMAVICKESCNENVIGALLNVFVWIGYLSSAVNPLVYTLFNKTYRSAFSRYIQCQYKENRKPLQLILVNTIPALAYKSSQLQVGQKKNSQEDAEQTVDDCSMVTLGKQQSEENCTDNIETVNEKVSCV

Turning to `OCCN1CCN([C@H]2C[C@H](c3ccc(F)cc3)c3cc(F)ccc32)CC1` (relative stereo) [Compound 2, Trans-4-[5-fluoro-3-(4-fluorophenyl)-2,3-dihydro-1H-inden-1-yl]-1-piperazine ethanol], the IC50 at 5-HT2 receptors worked out at 21 nM; on α1 adrenoceptors, 150 nM. `O=C1NCCN1CCN1CCN([C@@H]2C[C@@H](c3ccc(F)cc3)c3cc(Cl)ccc32)CC1` (relative stereo) [Compound 4, Trans-1-[2-[4-[5-chloro-3-(4-fluorophenyl)-2,3-dihydro-1H-inden-1-yl]piperazine-1-yl]ethyl]-2-imidazolidinone]: the IC50 is 2.9 nM at 5-HT2 receptors and 200 nM on α1 adrenoceptors.

Regarding `Cc1ccc2c(c1)[C@@H](c1ccc(F)cc1)C[C@@H]2N1CCN(CCN2CCN(C(C)C)C2=O)CC1` (relative stereo) [Compound 12, Trans-1-[2-[4-[3-(4-fluorophenyl)-5-methyl-2,3-dihydro-1-H-inden-1-yl]piperazin-1-yl]ethyl]-3-isopropyl-2-imidazolidinone], the IC50 on 5-HT2 receptors was 3 nM; at α1 adrenoceptors it was 120 nM. In the same order, the values of `O=C1OCCN1CCN1CCN([C@H]2C[C@H](c3ccc(F)cc3)c3cc(Cl)ccc32)CC1` (relative stereo) [Compound 14, Trans-3-[2-[4-[5-chloro-3-(4-fluorophenyl)-2,3-dihydro-1-H-inden-1-yl]piperazin-1-yl]ethyl]-2-oxazolidinone] are 23 nM and 140 nM. Taken in the same sequence, the figures for `O=C1CCCN1CCN1CCN([C@H]2C[C@H](c3ccc(F)cc3)c3cc(Cl)ccc32)CC1` (relative stereo) [Compound 15, Trans-1-[2-[4-[5-chloro-3-(4-fluorophenyl)-2-3-dihydro-1-H-inden-1-yl]piperazin-1-yl]ethyl]-2-pyrrolidinone] were 10 nM and 370 nM.

With `O=C1NCCN1CCCN1CCN([C@H]2C[C@H](c3ccc(F)cc3)c3cc(Cl)ccc32)CC1` (relative stereo) [Compound 16, Trans-1-[3-[4-[5-chloro-3-(4-fluorophenyl)-2,3-dihydro-1-H-inden-1-yl]piperazin-1-yl]propan-1-yl]-2-imidazolidinone], the IC50 on 5-HT2 receptors came out at 10 nM; at α1 adrenoceptors, 73 nM. For the molecule `O=c1[nH]c2ccccc2n1CCN1CCN([C@@H]2C[C@@H](c3ccc(F)cc3)c3cc(Cl)ccc32)CC1` (relative stereo) [Compound 25, Trans-1-[2-[4-[5-chloro-3-(4-fluorophenyl)-2,3-dihydro-1H-inden-1-yl]piperazin-1-yl]ethyl]-benzimidazolin-2-one], on 5-HT2 receptors, the IC50 was found to be 5.6 nM. Take `Fc1ccc([C@@H]2C[C@@H](N3CCN(CCN4CCNC4=S)CC3)c3ccc(F)cc32)cc1` (relative stereo) [Compound 29, Trans-1-[2-[4-[5-fluoro-3-(4-fluorophenyl)-2,3-dihydro-1H-inden-1-yl]piperazin-1-yl]-ethyl]-2-imidazolidinthione]: the IC50 was 1.5 nM on 5-HT2 receptors and 110 nM on α1 adrenoceptors. For the molecule `Fc1ccc([C@@H]2C[C@@H](N3CCN(CCN4CCCNC4=S)CC3)c3ccc(F)cc32)cc1` (relative stereo) [Compound 30, Trans-1-[2-[4-[5-fluoro-3-(4-fluorophenyl)-2,3-dihydro-1H-inden-1-yl]piperazin-1-yl]ethyl]-tetrahydro-2(1H)-pyrimidinethione], the IC50 came to 1.7 nM on 5-HT2 receptors and 110 nM at α1 adrenoceptors.

As for `Fc1ccc([C@@H]2C[C@@H](N3CCN(CCN4CCCNC4=S)CC3)c3ccc(Cl)cc32)cc1` (relative stereo) [Compound 32, Trans-1-[2-[4-[5-chloro-3-(4-fluorophenyl)-2,3-dihydro-1H-inden-1-yl]piperazin-1-yl]ethyl]-tetrahydro-2(1H)-pyrimidinethione], the IC50 on 5-HT2 receptors worked out at 1.5 nM; on α1 adrenoceptors it was 170 nM.

For the molecule `OCCN1CCN([C@H]2C[C@H](c3ccc(F)cc3)c3cc(F)ccc32)CC1` (single isomer, unassigned) [(+)-2], the results for the IC50 on 5-HT2 receptors and on α1 adrenoceptors were 12 nM and 72 nM, respectively. Taken in the same sequence, the figures for `OCCN1CCN([C@H]2C[C@H](c3ccc(F)cc3)c3cc(Cl)ccc32)CC1` (single isomer, unassigned) [(+)-3] were 230 nM and 2500 nM. Turning to `CC(C)N1CCN(CCN2CCN([C@H]3C[C@H](c4ccc(F)cc4)c4cc(Cl)ccc43)CC2)C1=O` (single isomer, unassigned) [(+)-11], the IC50 at 5-HT2 receptors came out at 75 nM; at α1 adrenoceptors, 340 nM. `Fc1ccc([C@@H]2C[C@@H](N3CCN(CCN4CCCNC4=S)CC3)c3ccc(Cl)cc32)cc1` (single isomer, unassigned) [(+)-32, (+)-Trans-1-[2-[4-[5-chloro-3-(4-fluorophenyl)-2,3-dihydro-1H-inden-1-yl]piperazin-1-yl]ethyl]-tetrahydro-2(1H)-pyrimidinethione]: the IC50 at 5-HT2 receptors was found to be 21 nM; at α1 adrenoceptors, 350 nM. For the molecule `O=C1NCCCN1CCN1CCN([C@@H]2C[C@@H](c3ccc(F)cc3)c3cc(Cl)ccc32)CC1` (single isomer, unassigned) [(+)-34, (+)-Trans-1-[2-[4-[5-chloro-3-(4-fluorophenyl)-2,3-dihydro-1H-inden-1-yl]piperazin-1-yl]ethyl]-tetrahydro-2(1H)-pyrimidinone], the IC50 at 5-HT2 receptors turned out to be 120 nM. As for `OCCN1CCN([C@H]2C[C@H](c3ccc(F)cc3)c3cc(F)ccc32)CC1` (single isomer, unassigned) [(-)-2], the IC50 worked out at 500 nM on 5-HT2 receptors and 1100 nM at α1 adrenoceptors.

Take `OCCN1CCN([C@H]2C[C@H](c3ccc(F)cc3)c3cc(Cl)ccc32)CC1` (single isomer, unassigned) [(-)-3]: the IC50 was 11 nM on 5-HT2 receptors and 210 nM at α1 adrenoceptors. In the same order, the values of `CC(C)N1CCN(CCN2CCN([C@@H]3C[C@@H](c4ccc(F)cc4)c4cc(Cl)ccc43)CC2)C1=O` (single isomer, unassigned) [(-)-11, (-)-Trans-1-[2-[4-[5-chloro-3-(4-fluorophenyl)-2,3-dihydro-1H-inden-1-yl]piperazin-1-yl]-ethyl]-3-isopropyl-2-imidazolidinone] are 1.1 nM and 210 nM. In the case of `Fc1ccc([C@@H]2C[C@@H](N3CCN(CCN4CCCNC4=S)CC3)c3ccc(F)cc32)cc1` (single isomer, unassigned) [(-)-30, (-)-Trans-1-[2-[4-[5-fluoro-3-(4-fluorophenyl)-2,3-dihydro-1H-inden-1-yl]piperazin-1-yl]ethyl]-tetrahydro-2(1H)-pyrimidinethione], on 5-HT2 receptors, the IC50 was found to be 42 nM. With `O=C1NCCCN1CCN1CCN([C@@H]2C[C@@H](c3ccc(F)cc3)c3cc(Cl)ccc32)CC1` (single isomer, unassigned) [(-)-34, (-)-Trans-1-[2-[4-[5-chloro-3-(4-fluorophenyl)-2,3-dihydro-1H-inden-1-yl]piperazin-1-yl]ethyl]-tetrahydro-2(1H)-pyrimidinone], the IC50 was 1.3 nM at 5-HT2 receptors and 62 nM at α1 adrenoceptors.
